Data published in PubChem BioAssay AID1963986 (Molecular Pharmacology Branch, DTP, NCI, 2024).

Tested on: 171881-019-R-J1-PDC tumor spheroid viability
Experiment: Anticancer human tumor 171881-019-R-J1-PDC patient-derived invasive breast carcinoma cell line growth inhibition [PI3K]
Conditions: spheroids with HUVEC and MSC; for IC50: curve of first compound; for viability, T/C: stronger effect = lower value
Procedure, shortened: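 Multi-cell spheroids combine tumor cells with HUVEC and human MSCs, treated with targeted agents alone or with inavolisib, alpelisib, duvelisib or copanlisib. Concentrations fall in half-log steps from at or near clinical Cmax, or from 10 microM where Cmax is unknown; viability read-out.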

[1] = second compound 0.00316 µM, first compound 0.000316 µM
[2] = second compound 0.00316 µM, first compound 0.001 µM
[3] = second compound 0.00316 µM, first compound 0.00316 µM
[4] = second compound 0.00316 µM, first compound 0.01 µM
[5] = second compound 0.00316 µM, first compound 0.0316 µM
[6] = second compound 0.00316 µM, first compound 0.1 µM
[7] = second compound 0.01 µM, first compound 0.000316 µM
[8] = second compound 0.01 µM, first compound 0.001 µM
[9] = second compound 0.01 µM, first compound 0.00316 µM
[10] = second compound 0.01 µM, first compound 0.01 µM
[11] = second compound 0.01 µM, first compound 0.0316 µM
[12] = second compound 0.01 µM, first compound 0.1 µM
[13] = second compound 0.0316 µM, first compound 0.000316 µM
[14] = second compound 0.0316 µM, first compound 0.001 µM
[15] = second compound 0.0316 µM, first compound 0.00316 µM
[16] = second compound 0.0316 µM, first compound 0.01 µM
[17] = second compound 0.0316 µM, first compound 0.0316 µM
[18] = second compound 0.0316 µM, first compound 0.1 µM
[19] = second compound 0.1 µM, first compound 0.000316 µM
[20] = second compound 0.1 µM, first compound 0.001 µM
[21] = second compound 0.1 µM, first compound 0.00316 µM
[22] = second compound 0.1 µM, first compound 0.01 µM
[23] = second compound 0.1 µM, first compound 0.0316 µM
[24] = second compound 0.1 µM, first compound 0.1 µM
[25] = second compound 0.316 µM, first compound 0.000316 µM
[26] = second compound 0.316 µM, first compound 0.001 µM
[27] = second compound 0.316 µM, first compound 0.00316 µM
[28] = second compound 0.316 µM, first compound 0.01 µM
[29] = second compound 0.316 µM, first compound 0.0316 µM
[30] = second compound 0.316 µM, first compound 0.1 µM
[31] = second compound 1 µM, first compound 0.000316 µM
[32] = second compound 1 µM, first compound 0.001 µM
[33] = second compound 1 µM, first compound 0.00316 µM
[34] = second compound 1 µM, first compound 0.01 µM
[35] = second compound 1 µM, first compound 0.0316 µM
[36] = second compound 1 µM, first compound 0.1 µM
[37] = second compound 0.00316 µM, first compound 0.316 µM
[38] = second compound 0.00316 µM, first compound 1 µM
[39] = second compound 0.00316 µM, first compound 3.16 µM
[40] = second compound 0.00316 µM, first compound 10 µM
[41] = second compound 0.01 µM, first compound 0.316 µM
[42] = second compound 0.01 µM, first compound 1 µM
[43] = second compound 0.01 µM, first compound 3.16 µM
[44] = second compound 0.01 µM, first compound 10 µM
[45] = second compound 0.0316 µM, first compound 0.316 µM
[46] = second compound 0.0316 µM, first compound 1 µM
[47] = second compound 0.0316 µM, first compound 3.16 µM
[48] = second compound 0.0316 µM, first compound 10 µM
[49] = second compound 0.1 µM, first compound 0.316 µM
[50] = second compound 0.1 µM, first compound 1 µM
[51] = second compound 0.1 µM, first compound 3.16 µM
[52] = second compound 0.1 µM, first compound 10 µM
[53] = second compound 0.316 µM, first compound 0.316 µM
[54] = second compound 0.316 µM, first compound 1 µM
[55] = second compound 0.316 µM, first compound 3.16 µM
[56] = second compound 0.316 µM, first compound 10 µM
[57] = second compound 1 µM, first compound 0.316 µM
[58] = second compound 1 µM, first compound 1 µM
[59] = second compound 1 µM, first compound 3.16 µM
[60] = second compound 1 µM, first compound 10 µM
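Also: spheroids exposed to compound for 7 days before viability read.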
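For viability, T/C in this document: 100% = DMSO vehicle-treated spheroids.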

Work on `CC(=O)c1c(C)c2cnc(Nc3ccc(N4CCNCC4)cn3)nc2n(C2CCCC2)c1=O` + COc1c(OCCCN2CCOCC2)ccc2c3n(c(=NC(=O)c4cnc(N)nc4)nc12)CCN3 yielded an IC50 (second compound 0.00316 µM) greater than 100 nM, an IC50 (second compound 0.01 µM) of less than 0.316 nM and an IC50 (second compound 0.0316 µM) of less than 0.316 nM. It also gave an IC50 (second compound 0.1 µM) of less than 0.316 nM, an IC50 (second compound 0.316 µM) of less than 0.316 nM and an IC50 (second compound 1 µM) of less than 0.316 nM. The viability, T/C [1] was 64.3%, the viability, T/C [2] was 63.9% and the viability, T/C [3] was 65.5%. It also gave a viability, T/C [4] of 73%, a viability, T/C [5] of 65% and a viability, T/C [6] of 70.4%. The viability, T/C [7] was 48.1%, the viability, T/C [8] was 53.9% and the viability, T/C [9] was 52.2%. The viability, T/C [10] was 55.1%, the viability, T/C [11] was 57.9% and the viability, T/C [12] was 58.5%. The viability, T/C [13] was 20.7%, the viability, T/C [14] was 25% and the viability, T/C [15] was 26.8%. For the same compound, the viability, T/C [16] was 27%, the viability, T/C [17] was 28.5% and the viability, T/C [18] was 27.9%. It also gave a viability, T/C [19] of 6.71%, a viability, T/C [20] of 6.39% and a viability, T/C [21] of 8.12%. For the same compound, the viability, T/C [22] was 7.28%, the viability, T/C [23] was 8.51% and the viability, T/C [24] was 7.44%. The viability, T/C [25] was 1.58%, the viability, T/C [26] was 2.19% and the viability, T/C [27] was 1.53%. It also gave a viability, T/C [28] of 1.61%, a viability, T/C [29] of 1.59% and a viability, T/C [30] of 1.7%. For the same compound, the viability, T/C [31] was 1.49%, the viability, T/C [32] was 1.21% and the viability, T/C [33] was 1.21%. It also gave a viability, T/C [34] of 1.26%, a viability, T/C [35] of 1.35% and a viability, T/C [36] of 1.32%.
With `CC(C)n1nc(-c2ccc3oc(N)nc3c2)c2c(N)ncnc21` + COc1c(OCCCN2CCOCC2)ccc2c3n(c(=NC(=O)c4cnc(N)nc4)nc12)CCN3 the IC50 (second compound 0.00316 µM) was 3.55 nM, the IC50 (second compound 0.01 µM) was less than 0.316 nM and the IC50 (second compound 0.0316 µM) was less than 0.316 nM. The IC50 (second compound 0.1 µM) was less than 0.316 nM, the IC50 (second compound 0.316 µM) was less than 0.316 nM and the IC50 (second compound 1 µM) was less than 0.316 nM. It also gave a viability, T/C [1] of 61.1%, a viability, T/C [2] of 66.3% and a viability, T/C [3] of 47.6%. It also gave a viability, T/C [4] of 36.1%, a viability, T/C [5] of 13.1% and a viability, T/C [6] of 3.55%. It also gave a viability, T/C [7] of 46%, a viability, T/C [8] of 45.8% and a viability, T/C [9] of 36.4%. For the same compound, the viability, T/C [10] was 19.3%, the viability, T/C [11] was 8.72% and the viability, T/C [12] was 2.78%. It also gave a viability, T/C [13] of 23.6%, a viability, T/C [14] of 22.3% and a viability, T/C [15] of 16%. It also gave a viability, T/C [16] of 8.85%, a viability, T/C [17] of 4.14% and a viability, T/C [18] of 2.34%. It also gave a viability, T/C [19] of 8.49%, a viability, T/C [20] of 7.85% and a viability, T/C [21] of 5.37%. The viability, T/C [22] was 3.59%, the viability, T/C [23] was 2.66% and the viability, T/C [24] was 1.6%. For the same compound, the viability, T/C [25] was 2.47%, the viability, T/C [26] was 2.41% and the viability, T/C [27] was 2.58%. It also gave a viability, T/C [28] of 1.51%, a viability, T/C [29] of 1.36% and a viability, T/C [30] of 1.1%. It also gave a viability, T/C [31] of 1.08%, a viability, T/C [32] of 0.86% and a viability, T/C [33] of 1.3%. For the same compound, the viability, T/C [34] was 1.16%, the viability, T/C [35] was 1.03% and the viability, T/C [36] was 1.05%.
`CCCS(=O)(=O)Nc1ccc(F)c(C(=O)c2c[nH]c3ncc(-c4ccc(Cl)cc4)cc23)c1F` + COc1c(OCCCN2CCOCC2)ccc2c3n(c(=NC(=O)c4cnc(N)nc4)nc12)CCN3 showed an IC50 (second compound 0.00316 µM) of 5730 nM, an IC50 (second compound 0.01 µM) of 4520 nM and an IC50 (second compound 0.0316 µM) of less than 31.6 nM. The IC50 (second compound 0.1 µM) was less than 31.6 nM, the IC50 (second compound 0.316 µM) was less than 31.6 nM and the IC50 (second compound 1 µM) was less than 31.6 nM. It also gave a viability, T/C [5] of 70.6%, a viability, T/C [6] of 81.9% and a viability, T/C [37] of 94.3%. For the same compound, the viability, T/C [38] was 108%, the viability, T/C [39] was 93.7% and the viability, T/C [40] was 12.9%. It also gave a viability, T/C [11] of 53.8%, a viability, T/C [12] of 60% and a viability, T/C [41] of 67.2%. The viability, T/C [42] was 83.6%, the viability, T/C [43] was 76.5% and the viability, T/C [44] was 9.83%. The viability, T/C [17] was 29%, the viability, T/C [18] was 29.3% and the viability, T/C [45] was 32%. It also gave a viability, T/C [46] of 40.5%, a viability, T/C [47] of 45.8% and a viability, T/C [48] of 5.59%. The viability, T/C [23] was 9.3%, the viability, T/C [24] was 10.5% and the viability, T/C [49] was 10.9%. The viability, T/C [50] was 13.9%, the viability, T/C [51] was 17.3% and the viability, T/C [52] was 2.6%. It also gave a viability, T/C [29] of 2.18%, a viability, T/C [30] of 2.42% and a viability, T/C [53] of 3.05%. The viability, T/C [54] was 2.63%, the viability, T/C [55] was 3.95% and the viability, T/C [56] was 2.09%. It also gave a viability, T/C [35] of 1.32%, a viability, T/C [36] of 1.32% and a viability, T/C [57] of 1.47%. The viability, T/C [58] was 1.16%, the viability, T/C [59] was 1.64% and the viability, T/C [60] was 3.34%.
Work on `CNC(=O)c1ccc(N2C(=S)N(c3ccc(C#N)c(C(F)(F)F)c3)C(=O)C2(C)C)cc1F` + COc1c(OCCCN2CCOCC2)ccc2c3n(c(=NC(=O)c4cnc(N)nc4)nc12)CCN3 yielded an IC50 (second compound 0.00316 µM) greater than 10000 nM, an IC50 (second compound 0.01 µM) of less than 31.6 nM and an IC50 (second compound 0.0316 µM) of less than 31.6 nM. The IC50 (second compound 0.1 µM) was less than 31.6 nM, the IC50 (second compound 0.316 µM) was less than 31.6 nM and the IC50 (second compound 1 µM) was less than 31.6 nM. For the same compound, the viability, T/C [5] was 64%, the viability, T/C [6] was 77.1% and the viability, T/C [37] was 68.7%. The viability, T/C [38] was 80.8%, the viability, T/C [39] was 62.1% and the viability, T/C [40] was 61.8%. For the same compound, the viability, T/C [11] was 46.4%, the viability, T/C [12] was 48% and the viability, T/C [41] was 53.4%. For the same compound, the viability, T/C [42] was 50.3%, the viability, T/C [43] was 43.5% and the viability, T/C [44] was 43.5%. It also gave a viability, T/C [17] of 28%, a viability, T/C [18] of 27.9% and a viability, T/C [45] of 28%. It also gave a viability, T/C [46] of 24.5%, a viability, T/C [47] of 25.8% and a viability, T/C [48] of 21.8%. For the same compound, the viability, T/C [23] was 9.2%, the viability, T/C [24] was 7.58% and the viability, T/C [49] was 7.75%. The viability, T/C [50] was 8.13%, the viability, T/C [51] was 8.01% and the viability, T/C [52] was 7.49%. For the same compound, the viability, T/C [29] was 2.27%, the viability, T/C [30] was 1.99% and the viability, T/C [53] was 2.25%. It also gave a viability, T/C [54] of 2.17%, a viability, T/C [55] of 2.25% and a viability, T/C [56] of 3.05%. It also gave a viability, T/C [35] of 1.38%, a viability, T/C [36] of 1.14% and a viability, T/C [57] of 1.18%. For the same compound, the viability, T/C [58] was 1.73%, the viability, T/C [59] was 1.02% and the viability, T/C [60] was 1.64%.
